Like-named read-outs stand apart in the source and are kept apart here. Starred links: 1 amine or outer side, 2 acyl side, 3 side chain; linkers in the order of their positions; H or OH if unused. Non-standard residues stand in square brackets, D forms with d. Residues, ends and D or L forms follow the SMILES beside them. Groups on a side chain read outwards from the residue. *: point of attachment. C20 diacid = O=C(O)CCCCCCCCCCCCCCCCCCC(=O)*; γGlu = O=C(O)[C@H](CCC(=O)[*:2])N[*:1]; NMeI = CC[C@H](C)[C@H](NC)C(=O)O; Nle = CCCC[C@H](N)C(=O)O; AEEA = NCCOCCOCC(=O)O; Aib = CC(C)(N)C(=O)O

For test [1], the target named is T1, hCRHR1 (Homo sapiens, UniProt P34998).
T1 sequence (P34998 24-415): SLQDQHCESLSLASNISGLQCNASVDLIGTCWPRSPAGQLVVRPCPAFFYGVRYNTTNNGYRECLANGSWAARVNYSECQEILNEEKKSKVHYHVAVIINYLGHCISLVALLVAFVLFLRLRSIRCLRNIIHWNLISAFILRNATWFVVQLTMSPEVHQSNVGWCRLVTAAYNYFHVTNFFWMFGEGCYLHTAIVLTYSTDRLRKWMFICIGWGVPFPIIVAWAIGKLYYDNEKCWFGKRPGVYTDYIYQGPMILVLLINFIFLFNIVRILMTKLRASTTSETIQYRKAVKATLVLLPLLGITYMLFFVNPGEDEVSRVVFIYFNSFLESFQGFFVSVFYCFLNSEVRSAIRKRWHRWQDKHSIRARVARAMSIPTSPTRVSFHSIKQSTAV
Description: HTRF cAMP assay, determination of hCRHR1 potency (peptide libraries 5 conc., purified peptides 11 conc.). Type of test: cell-based. Put shortly:
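Cellular cAMP was read by time-resolved FRET between d2-labelled cAMP and cryptate anti-cAMP antibody. The cells were freshly thawed suspension CHO-K1 cells stably expressing human CRHR1.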

For test [2], the target named is T2, hCRHR2 (Homo sapiens, UniProt Q13324).
T2 sequence (Q13324 1-411): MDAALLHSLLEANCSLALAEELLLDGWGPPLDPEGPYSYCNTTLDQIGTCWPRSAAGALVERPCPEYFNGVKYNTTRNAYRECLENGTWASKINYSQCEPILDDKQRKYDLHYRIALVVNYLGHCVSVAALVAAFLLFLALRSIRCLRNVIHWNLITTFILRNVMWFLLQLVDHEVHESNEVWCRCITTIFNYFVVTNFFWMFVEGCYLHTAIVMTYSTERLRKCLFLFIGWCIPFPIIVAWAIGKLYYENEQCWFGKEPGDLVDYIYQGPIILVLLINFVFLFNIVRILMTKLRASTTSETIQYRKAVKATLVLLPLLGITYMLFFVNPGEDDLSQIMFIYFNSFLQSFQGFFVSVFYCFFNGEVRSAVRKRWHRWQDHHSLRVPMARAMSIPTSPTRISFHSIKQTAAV
Description: HTRF cAMP assay, determination of hCRHR2 potency (peptide libraries 5 conc., purified peptides 11 conc.). Type of test: cell-based. Put shortly:
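Read-out was HTRF competitive cAMP detection (d2-labelled cAMP, cryptate-labelled antibody) in suspended, freshly thawed CHO-K1 cells stably carrying human CRHR2.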
In general terms: Time-resolved FRET reads energy transfer from a long-lived donor to a nearby acceptor.

Where [3] appears, read: library peptides, matched molecular pairs L vs Nle in position X^38, read-out: Potency hCRHR1 pEC50 (converted).
Where [4] appears, read: library peptides, matched molecular pairs L vs Nle in position X^38, read-out: Potency hCRHR2 pEC50 (converted).
Where [5] appears, read: Table 3, matched molecular pairs X^38 L vs Nle, peptide library of Example 4, read-out: hCRHR1 pEC50 (converted).
[6] abbreviates: Table 3, matched molecular pairs X^38 L vs Nle, peptide library of Example 4, read-out: hCRHR2 pEC50 (converted).

With `CC[C@H](C)[C@H](N)C(=O)N[C@H](C(=O)N[C@@H](CC(C)C)C(=O)N[C@@H](CO)C(=O)N[C@@H](CC(C)C)C(=O)N[C@@H](CC(=O)O)C(=O)N[C@H](C(=O)N1CCC[C@H]1C(=O)N[C@H](C(=O)NCC(=O)N[C@@H](CC(C)C)C(=O)N[C@@H](CC(C)C)C(=O)N[C@@H](CCC(N)=O)C(=O)N[C@H](C(=O)N[C@@H](CC(C)C)C(=O)N[C@@H](CC(C)C)C(=O)N[C@@H](CCC(=O)O)C(=O)N[C@@H](CCC(N)=O)C(=O)N[C@@H](C)C(=O)N[C@@H](CCCNC(=N)N)C(=O)N[C@@H](C)C(=O)N[C@@H](CCCNC(=N)N)C(=O)N[C@@H](C)C(=O)N[C@@H](CC(C)C)C(=O)N[C@@H](CCCNC(=N)N)C(=O)N[C@@H](CCC(=O)O)C(=O)N[C@@H](CCC(=O)O)C(=O)N[C@@H](C)C(=O)N[C@@H](CCCCNC(=O)COCCOCCNC(=O)COCCOCCNC(=O)CC[C@H](NC(=O)CC[C@H](NC(=O)CCCCCCCCCCCCCCCCCCC(=O)O)C(=O)O)C(=O)O)C(=O)N[C@H](C(=O)N[C@@H](CC(N)=O)C(=O)N[C@@H](C)C(=O)N[C@@H](CCC(=O)O)C(=O)N[C@H](C(=O)N[C@@H](CC(C)C)C(=O)N[C@@H](C)C(=O)N[C@@H](CCC(=O)O)C(=O)N[C@H](C(N)=O)C(C)C)[C@@H](C)CC)[C@@H](C)O)[C@@H](C)CC)[C@@H](C)CC)C(C)C)C(C)C` [compound 50] (H-IVLSLDVPIGLLQILLEQARARALREEAK([AEEA-AEEA-γGlu-γGlu-C20 diacid])TNAEILAEV-NH2), the EC50 was 158000 nM in test [1] (setting [3]) and 2 nM in test [2] (setting [4]).
As to `CC[C@H](C)[C@H](N)C(=O)N[C@H](C(=O)N[C@@H](CC(C)C)C(=O)N[C@@H](CO)C(=O)N[C@@H](CC(C)C)C(=O)N[C@@H](CC(=O)O)C(=O)N[C@H](C(=O)N1CCC[C@H]1C(=O)N[C@H](C(=O)NCC(=O)N[C@@H](CC(C)C)C(=O)N[C@@H](CC(C)C)C(=O)N[C@@H](CCC(N)=O)C(=O)N[C@H](C(=O)N[C@@H](CC(C)C)C(=O)N[C@@H](CC(C)C)C(=O)N[C@@H](CCC(=O)O)C(=O)N[C@@H](CCC(N)=O)C(=O)N[C@@H](C)C(=O)N[C@@H](CCCNC(=N)N)C(=O)N[C@@H](C)C(=O)N[C@@H](CCCNC(=N)N)C(=O)N[C@@H](C)C(=O)N[C@@H](CCC(N)=O)C(=O)N[C@@H](CCCNC(=N)N)C(=O)N[C@@H](CCC(N)=O)C(=O)N[C@@H](CCC(N)=O)C(=O)N[C@@H](C)C(=O)N[C@@H](CCCCNC(=O)COCCOCCNC(=O)COCCOCCNC(=O)CC[C@H](NC(=O)CC[C@H](NC(=O)CCCCCCCCCCCCCCCCCCC(=O)O)C(=O)O)C(=O)O)C(=O)N[C@H](C(=O)N[C@@H](CC(N)=O)C(=O)N[C@@H](C)C(=O)N[C@@H](CCC(=O)O)C(=O)N[C@H](C(=O)N[C@@H](CC(C)C)C(=O)N[C@@H](C)C(=O)N[C@@H](CCC(=O)O)C(=O)N[C@H](C(N)=O)C(C)C)[C@@H](C)CC)[C@@H](C)O)[C@@H](C)CC)[C@@H](C)CC)C(C)C)C(C)C` [SEQ ID NO: 46] (H-IVLSLDVPIGLLQILLEQARARAQRQQAK([AEEA-AEEA-γGlu-γGlu-C20 diacid])TNAEILAEV-NH2), the EC50 in test [1] (setting [5]) is 2510 nM; in test [2] (setting [6]), 0.316 nM.
Consider `CC[C@H](C)[C@H](N)C(=O)N[C@H](C(=O)N[C@@H](CC(C)C)C(=O)N[C@@H](CO)C(=O)N[C@@H](CC(C)C)C(=O)N[C@@H](CC(=O)O)C(=O)N[C@H](C(=O)N1CCC[C@H]1C(=O)N[C@H](C(=O)NCC(=O)N[C@@H](CC(C)C)C(=O)N[C@@H](CC(C)C)C(=O)N[C@@H](CCC(N)=O)C(=O)N[C@H](C(=O)N[C@@H](CC(C)C)C(=O)N[C@@H](CC(C)C)C(=O)N[C@@H](CCC(=O)O)C(=O)N[C@@H](CCC(N)=O)C(=O)N[C@@H](C)C(=O)N[C@@H](CCCNC(=N)N)C(=O)N[C@@H](C)C(=O)N[C@@H](CCC(N)=O)C(=O)N[C@@H](C)C(=O)N[C@@H](C)C(=O)N[C@@H](CCCNC(=N)N)C(=O)N[C@@H](CCC(=O)O)C(=O)N[C@@H](CCC(N)=O)C(=O)N[C@@H](C)C(=O)N[C@@H](CCCCNC(=O)COCCOCCNC(=O)COCCOCCNC(=O)CC[C@H](NC(=O)CC[C@H](NC(=O)CCCCCCCCCCCCCCCCCCC(=O)O)C(=O)O)C(=O)O)C(=O)N[C@H](C(=O)N[C@@H](CC(N)=O)C(=O)N[C@@H](C)C(=O)N[C@@H](CCC(=O)O)C(=O)N[C@H](C(=O)N[C@@H](CC(C)C)C(=O)N[C@@H](C)C(=O)N[C@@H](CCC(=O)O)C(=O)N[C@H](C(N)=O)C(C)C)[C@@H](C)CC)[C@@H](C)O)[C@@H](C)CC)[C@@H](C)CC)C(C)C)C(C)C` [compound 62] (H-IVLSLDVPIGLLQILLEQARAQAAREQAK([AEEA-AEEA-γGlu-γGlu-C20 diacid])TNAEILAEV-NH2), for which the EC50 in test [1] (setting [3]) was 25100 nM; in test [2] (setting [4]), 0.316 nM.
As for `CC[C@H](C)[C@H](N)C(=O)N[C@H](C(=O)N[C@@H](CC(C)C)C(=O)N[C@@H](CO)C(=O)N[C@@H](CC(C)C)C(=O)N[C@@H](CC(=O)O)C(=O)N[C@H](C(=O)N1CCC[C@H]1C(=O)N[C@H](C(=O)NCC(=O)N[C@@H](CC(C)C)C(=O)N[C@@H](CC(C)C)C(=O)N[C@@H](CCC(N)=O)C(=O)N[C@H](C(=O)N[C@@H](CC(C)C)C(=O)N[C@@H](CC(C)C)C(=O)N[C@@H](CCC(=O)O)C(=O)N[C@@H](CCC(N)=O)C(=O)N[C@@H](C)C(=O)N[C@@H](CCCNC(=N)N)C(=O)N[C@@H](C)C(=O)N[C@@H](CCCNC(=N)N)C(=O)N[C@@H](C)C(=O)N[C@@H](CC(C)C)C(=O)N[C@@H](CCCNC(=N)N)C(=O)N[C@@H](CCC(=O)O)C(=O)N[C@@H](CCC(N)=O)C(=O)N[C@@H](C)C(=O)N[C@@H](CCCCNC(=O)COCCOCCNC(=O)COCCOCCNC(=O)CC[C@H](NC(=O)CC[C@H](NC(=O)CCCCCCCCCCCCCCCCCCC(=O)O)C(=O)O)C(=O)O)C(=O)N[C@H](C(=O)N[C@@H](CC(N)=O)C(=O)N[C@@H](C)C(=O)N[C@@H](CCC(=O)O)C(=O)N[C@H](C(=O)N[C@@H](CC(C)C)C(=O)N[C@@H](C)C(=O)N[C@@H](CCC(=O)O)C(=O)N[C@H](C(N)=O)C(C)C)[C@@H](C)CC)[C@@H](C)O)[C@@H](C)CC)[C@@H](C)CC)C(C)C)C(C)C` [SEQ ID NO: 39] (H-IVLSLDVPIGLLQILLEQARARALREQAK([AEEA-AEEA-γGlu-γGlu-C20 diacid])TNAEILAEV-NH2), the figures for the EC50 in test [1] (setting [5]) and in test [2] (setting [6]) were 794 nM and 0.501 nM, respectively.
Regarding `CCCC[C@H](NC(=O)[C@@H](NC(=O)[C@H](CCC(=O)O)NC(=O)C(C)(C)NC(=O)[C@H](CC(N)=O)NC(=O)[C@@H](NC(=O)[C@H](CCCCNC(=O)COCCOCCNC(=O)COCCOCCNC(=O)CC[C@H](NC(=O)CC[C@H](NC(=O)CCCCCCCCCCCCCCCCCCC(=O)O)C(=O)O)C(=O)O)NC(=O)[C@H](C)NC(=O)[C@H](CCC(N)=O)NC(=O)[C@H](CCC(=O)O)NC(=O)[C@H](CCCNC(=N)N)NC(=O)[C@H](C)NC(=O)[C@H](C)NC(=O)[C@H](CCCNC(=N)N)NC(=O)[C@H](C)NC(=O)[C@H](CCCNC(=N)N)NC(=O)[C@H](C)NC(=O)[C@H](CCC(N)=O)NC(=O)[C@H](CCCCN)NC(=O)[C@H](CC(C)C)NC(=O)[C@H](CC(C)C)NC(=O)[C@@H](NC(=O)[C@H](CCC(N)=O)NC(=O)[C@H](CC(C)C)NC(=O)[C@H](CC(C)C)NC(=O)CNC(=O)[C@@H](NC(=O)[C@@H]1CCCN1C(=O)[C@@H](NC(=O)[C@H](CC(=O)O)NC(=O)[C@H](CC(C)C)NC(=O)[C@H](CO)NC(=O)[C@H](CC(C)C)NC(=O)[C@@H](NC(=O)[C@@H](NC)[C@@H](C)CC)C(C)C)C(C)C)[C@@H](C)CC)[C@@H](C)CC)[C@@H](C)O)[C@@H](C)CC)C(=O)N[C@@H](C)C(=O)N[C@@H](CCC(=O)O)C(=O)N[C@H](C(N)=O)C(C)C` [compound 230] (H-[NMeI]VLSLDVPIGLLQILLKQARARAAREQAK([AEEA-AEEA-γGlu-γGlu-C20 diacid])TN[Aib]EI[Nle]AEV-NH2), the EC50 in test [1] (Table 4, library peptides having X^38 = Nle, read-out: hCRHR1 pEC50 (converted)) was 31600 nM; in test [2] (Table 4, library peptides having X^38 = Nle, read-out: hCRHR2 pEC50 (converted)), 0.0501 nM.

These data come from patent EP4810052A2, “HCRHR2 SELECTIVE POLYPEPTIDES” (Gubra A/S, priority 2023, dated 2026).
